Experimental data: patent US5324725A, “7-fused 2-(piperazinoalkyl) indole derivatives, intermediates and compositions thereof” (Kali-Chemie Pharma GmbH, priority 1991, dated 1994)
Where two headings read alike, the source gives them in different places.

Tests used:
[1] = tested on: Histamine-induced anaphylactoid reactions; assay: Inhibition of anaphylactoid cutaneous reaction induced by histamine; format: in vivo, rat (Sprague-Dawley); details: Rattus norvegicus, 1 h; rats, 2 × 10^-5 mol/kg p.o., one hour before challenge; histamine intradermal
In short: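 Animals received 50 μl intradermal histamine (0.8 mg/ml in saline) in the flank opposite the antiserum site, just before i.v. ovalbumin plus blue dye. Test substance at 2×10^-5 mol/kg was given orally 1 h before challenge in water with 1% DMF and 1% Tween 20. Blue-dye exudation was scored visually at 30 min, giving % inhibition versus solvent controls.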

[2] = molecular target: T1, histamine (H1) receptor (Cavia porcellus, UniProt P31389); assay: Antihistamine (H1) effect: inhibition of histamine-induced contractions of isolated guinea-pig ileum in vitro; format: cell-based, guinea-pig (Dunkin Hartley); details: histamine 5 × 10^-6 mol/l, test substance 10^-6 mol/l
T1 construct: isolated smooth muscle of the guinea-pig ileum; from tissue; host or cells: isolated ileum segments of Dunkin Hartley guinea-pigs
Method: 3. Investigation of the antihistamine (H1) effect based on histamine (H1) receptor antagonism in vitro.
To investigate the histamine (H1) receptor antagonism of the substances, the inhibitory effect thereof on histamine-induced contractions of the smooth musculature of isolated organ was determined in vitro. Isolated strips of organ from the ileum were used. In an organ bath of physiological saline solution, they react to addition of histamine by contracting. Addition of the compounds of the invention decreases this histamine-induced contraction of the smooth musculature of the ileum strips. The extent of decrease of the contraction is an indication of the antihistamine (H1) activity of the compounds. The investigation is carried out analogously to the method originally described by Magnus (Pflugers Arch. 102, 123 (1904)).
Experimental description of the determination of the inhibitory effect on the contraction induced by a 5×10^-6 molar histamine concentration on isolated smooth muscle of the guinea-pig ileum.
For the test, 1.5 cm long segments of the ileum from Dunkin Hartley guinea-pigs having a body weight of 300-500 g were employed. Each strip was placed in an organ bath of 10 ml of Krebs-Henseleit physiological saline solution and attached to a customary apparatus for isotonically measuring changes in length of the ileum strip (automated Celaster measuring apparatus) so that the tissue is under a tension of 1 g. The bath was kept at a pH of 7.4 and aerated with a mixture of 5% CO2 and 95% O2. After an equilibration phase, an isotonic contraction of the tissue was produced by adding histamine in a final concentration of 5×10^-6 mol/l and was washed out again after a contact time of 30 seconds. Only those tissues in which three reproducible contractions were obtained at 10 minute intervals were used in the subsequent test. The test substances were then added in a final concentration of 10^-6 mol/l, and after a contact time of 30 seconds histamine was again added up to a concentration of 5×10^-6 mol/l. The contractions which occurred were measured over the course of 30 seconds. The tissue was then washed several times over a period of 10 minutes. A contraction challenge was then induced again by addition of histamine. The contractions which occurred were again measured over 30 seconds. The difference between the amplitude of the contraction obtained by histamine addition alone and the amplitude of the contraction obtained in the presence of the test substance was determined and calculated as % inhibition.
The inhibitory effects on the contractions induced by histamine 30 seconds after administration of the test substance and on the contractions induced by addition of histamine 10 minutes afterward are given in the table.

[3] = tested on: Passive cutaneous anaphylaxis (P.C.A.); assay: Inhibition of passive cutaneous anaphylaxis (P.C.A.); format: in vivo, rat (Sprague-Dawley); details: Rattus norvegicus, 1 h; rats, 2 × 10^-5 mol/kg p.o., one hour before ovalbumin challenge
In short: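 Sprague-Dawley rats (150-180 g) were sensitized intradermally with rat IgE-rich anti-ovalbumin serum and challenged 24 h later with i.v. ovalbumin 8.25 mg/kg plus Evans blue. Compound was given orally at 2×10^-5 mol/kg 1 h before challenge. Dye exudation was scored visually at 30 min as % inhibition versus vehicle controls.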

[4] = after 30 sec., read-out: in vitro (H1) receptor antagonism % inhibitory effect on histamine-induced contractions of the Ileum, after 30 sec.
[5] = after 10 min. (after washing), read-out: in vitro (H1) receptor antagonism % inhibitory effect on histamine-induced contractions of the Ileum, after 10 min.

T1 sequence (P31389 whole entry): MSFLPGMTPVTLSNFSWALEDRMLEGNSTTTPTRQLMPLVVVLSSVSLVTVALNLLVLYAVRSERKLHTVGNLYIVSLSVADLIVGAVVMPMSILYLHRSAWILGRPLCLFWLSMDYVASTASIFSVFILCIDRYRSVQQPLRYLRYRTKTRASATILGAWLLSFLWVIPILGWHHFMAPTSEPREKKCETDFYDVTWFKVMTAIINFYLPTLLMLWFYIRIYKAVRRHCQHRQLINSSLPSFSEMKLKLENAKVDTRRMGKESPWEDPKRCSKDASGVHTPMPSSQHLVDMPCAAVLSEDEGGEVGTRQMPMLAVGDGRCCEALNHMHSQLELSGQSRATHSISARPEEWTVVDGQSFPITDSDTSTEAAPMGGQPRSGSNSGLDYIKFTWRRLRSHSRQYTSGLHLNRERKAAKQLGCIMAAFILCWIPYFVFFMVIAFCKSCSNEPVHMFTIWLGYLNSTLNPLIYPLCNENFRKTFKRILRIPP

Row | SMILES | inhibition at 1 µM [2, 4] [%] | inhibition at 1 µM [2, 5] [%] | in vitro (H1) receptor antagonism % inhibitory effect on histamine-induced contractions of the Ileum, after 30 sec. ([2]; after 30 sec.) [%] | in vitro (H1) receptor antagonism % inhibitory effect on histamine-induced contractions of the Ileum, after 10 min. ([2]; after 10 min. (after washing)) [%] | inhibition in vivo at 20 µmol/kg [1] [%] | inhibition in vivo at 20 µmol/kg [3] [%]
1 | Cc1ccnc(N2CCN(CCc3c(C)n4c5c(cccc35)CC4C)CC2)c1 (stereo not drawn) [Example 33] | 45 | 96 |  |  | 93 | 100
2 | Cc1c(CCN2CCN(c3ccc(Br)cn3)CC2)c2cccc3c2n1CCC3 [Example 43] | 11 | 23 |  |  |  | 
3 | CCCCCCCC1CCc2cccc3c(CCN4CCN(c5cc(C)ccn5)CC4)c(C)n1c23 (stereo not drawn) [Example 4, 4-n-heptyl-5,6-dihydro-2-methyl-1-{2-[4-(4-methylpyridin-2-yl)piperazin-1-yl]ethyl}-4H-pyrrolo[3,2,1-ij]-quinoline] |  |  |  |  | 55 | 55
4 | CCc1c(CCN2CCN(c3cc(C)ccn3)CC2)c2cccc3c2n1CCC3 [Example 15, 2-Ethyl-5,6-dihydro-1-{2-[4-(4-methylpyridin-2-yl)piperazin-1-yl]ethyl}-4H-pyrrolo[3,2,1-ij]quinoline] | 29 | 78 |  |  | 65 | 85
5 | Cc1ccnc(N2CCN(CCc3c(-c4ccc(F)cc4)n4c5c(cccc35)CCC4)CC2)c1 [Example 47] |  |  |  |  | 20 | 50
6 | Cc1ccnc(N2CCN(CCc3c(-c4ccc(OCCCCO)cc4)n4c5c(cccc35)CCC4)CC2)c1 [Example 12, 2-[4-(4-Hydroxybutyloxy)-phenyl]-1-{2-[4-(4-methylpyridin-2-yl)piperazin-1-yl]ethyl}-5,6-dihydro-4H-pyrrolo[3,2,1-ij]quinoline] |  |  |  |  | 25 | 25
7 | C=CCCC1CCc2cccc3c(CCN4CCN(c5cc(C)ccn5)CC4)c(C)n1c23 (stereo not drawn) [Example 62] | 13 | 72 |  |  | 95 | 100
8 | CCCCC1CCc2cccc3c(CCN4CCN(c5cc(C)ccn5)CC4)c(C)n1c23 (stereo not drawn) [Example 73, 4-n-butyl-5,6-dihydro-2-methyl-1-{2-[4-(4-methylpyridin-2-yl)piperazin-1-yl]ethyl}-4H-pyrrolo[3,2,1-ij]quinoline] |  |  |  |  | 95 | 100
9 | Cc1ccnc(N2CCN(CCc3c(C)n4c5c(cc(Cc6ccccc6)cc35)CCC4)CC2)c1 [Example 77] |  |  |  |  | 30 | 60
10 | COc1ccc(C2CCc3cccc4c(CCN5CCN(c6cc(C)ccn6)CC5)c(C)n2c34)cc1 (stereo not drawn) [Example 59] |  |  |  |  | 95 | 95
11 | CCCCC1CCc2cc(C(=O)C(C)C)cc3c(CCN4CCN(c5cc(C)ccn5)CC4)c(C)n1c23 (stereo not drawn) [Example 23, 4-n-Butyl-5,6-dihydro-8-(2-methyl-1-oxopropyl)-2-methyl-1-{2-[4-(4-methylpyridin-2-yl)piperazin-1-yl]ethyl}-4H-pyrrolo[3,2,1-ij]quinoline] | 7 | 38 |  |  | 95 | 100
12 | Cc1ccnc(N2CCN(CCc3c(C)n4c5c(ccc(C(O)C(C)C)c35)SCC4)CC2)c1 (stereo not drawn) [Example 90] | 19 | 88 |  |  | 77 | 81
13 | COc1ccc(-c2c(CCN3CCN(c4cc(C)ccn4)CC3)c3cccc4c3n2CCC4)cc1 [Example 7, 2-(4-methoxy-phenyl)-1-{2-[4-(4-methylpyridin-2-yl)piperazin-1-yl]ethyl}-5,6-dihydro-4H-pyrrolo[3,2,1-ij]quinoline] |  |  |  |  | 35 | 75
14 | Cc1ccnc(N2CCN(CCc3c(C)n4c5c(cccc35)CCC4c3ccc(O)cc3)CC2)c1 (stereo not drawn) [Example 61] |  |  |  |  | 100 | 100
15 | Cc1ccnc(N2CCN(CCc3c(C)n4c5c(cc(C(=O)C6CCCCC6)cc35)CCC4)CC2)c1 [Example 83] | 12 | 52 |  |  |  | 
16 | Cc1ccnc(N2CCN(CCc3c(C)n4c5c(cc(N(C)C)cc35)CCC4)CC2)c1 [Example 81] |  |  |  |  | 82 | 86

Further lines, with some results ahead:

Row | inhibition at 1 µM [2, 4] [%] | inhibition at 1 µM [2, 5] [%] | in vitro (H1) receptor antagonism % inhibitory effect on histamine-induced contractions of the Ileum, after 30 sec. ([2]; after 30 sec.) [%] | in vitro (H1) receptor antagonism % inhibitory effect on histamine-induced contractions of the Ileum, after 10 min. ([2]; after 10 min. (after washing)) [%] | SMILES | inhibition in vivo at 20 µmol/kg [1] [%] | inhibition in vivo at 20 µmol/kg [3] [%]
17 | 10 | 77 |  |  | Cc1ccnc(N2CCN(CCc3c(C)n4c5c(cc(NC(=O)c6ccccc6)cc35)CCC4)CC2)c1 [Example 25, 8-Benzoylamino-5,6-dihydro-2-methyl-1-{2-[4-(4-methylpyridin-2-yl)piperazin-1-yl]-ethyl}-4H-pyrrolo[3,2,1-ij]quinoline] | 100 | 100
18 | 26 | 83 |  |  | Cc1ccnc(N2CCN(CCc3c(C)n4c5c(cc(C(O)C(C)C)cc35)CCC4)CC2)c1 (stereo not drawn) [Example 19, 5,6-Dihydro-8-(1-hydroxy-2-methylpropyl)-2-methyl-1-{2-[4-(4-methylpyridin-2-yl)piperazin-1-yl]ethyl}-4H-pyrrolo-[3,2,1-ij]quinoline] | 95 | 95
19 | 15 | 42 |  |  | CC(C)=Cc1cc2c3c(c1)c(CCN1CCN(c4cc(C)ccn4)CC1)c(C)n3CCC2 [Example 26, 5,6-Dihydro-2-methyl-8-(2-methylprop-1-enyl)-1-{2-[4-(4-methylpyridin-2-yl)piperazin-1-yl]ethyl}-4H-pyrrolo[3,2,1-ij]quinoline] | 90 | 95
20 | 47 | 92 |  |  | Cc1ccnc(N2CCN(CCc3c(C)n4c5c(cc([N+](=O)[O-])cc35)CCC4)CC2)c1 [Example 10, 2-Methyl-8-nitro-1-{2-[4-(4-methylpyridin-2-yl)-piperazin-1-yl]ethyl}-5,6-dihydro-4H-pyrrolo[3,2,1-ij]quinoline] | 75 | 83
21 | 10 | 78 |  |  | Cc1ccnc(N2CCN(CCc3c(C)n4c5c(cc(Br)cc35)CCC4)CC2)c1 [Example 9, 8-Bromo-2-methyl-1-{2-[4-(4-methylpyridin-2-yl)piperazin-1-yl]ethyl}-5,6-dihydro-4H-pyrrolo[3,2,1-ij]quinoline] | 80 | 90
22 | 9 | 56 |  |  | Cc1ccnc(N2CCN(CCc3c(C)n4c5c(cc(CC(C)C)cc35)CCC4)CC2)c1 [Example 21, 5,6-Dihydro-2-methyl-8-(2-methylpropyl)-1-{2-[4-(4-methylpyridin-2-yl)piperazin-1-yl]ethyl}-4H-pyrrolo[3,2,1-ij]quinoline] | 90 | 95
23 | 27 | 77 |  |  | Cc1ccnc(N2CCN(CCc3c(C)n4c5c(cc(N)cc35)CCC4)CC2)c1 [Example 20, 8-Amino-5,6-dihydro-2-methyl-1-{2-[4-(4-methylpyridin-2-yl)piperazin-1-yl]ethyl}-4H-pyrrolo[3,2,1-ij]quinoline] | 95 | 100
24 |  |  | 15 | 63 | CNc1cc2c3c(c1)c(CCN1CCN(c4cc(C)ccn4)CC1)c(C)n3CCC2 [Example 80] |  | 
